Ten compounds from ChEMBL document CHEMBL5620348, “3-Hydroxy-pyridin-4(1H)-ones as siderophores mediated delivery of isobavachalcone enhances antibacterial activity against pathogenic Pseudomonas aeruginosa” (Eur J Med Chem, 2023) can be followed below.

Broadly, the MIC is the smallest concentration in the dilution series that meets the test's criterion for growth inhibition. The IC50 is the point on the concentration scale where inhibition reaches its midpoint.

Series [1] has as its system Pseudomonas aeruginosa. In words: Antibacterial activity against multi-drug resistant Pseudomonas aeruginosa clinical isolate 1167 assessed as inhibition of bacterial growth by measuring minimum inhibitory concentration incubated for 18 to 20 hrs in presence of M9 medium by broth microdilution assay. To be noted: time 18-20 hrs. It is filed as functional.
The subject of series [2] is Staphylococcus aureus. Kind of series: Antibacterial activity against Staphylococcus aureus ATCC 25923 assessed as inhibition of bacterial growth by measuring minimum inhibitory concentration incubated for 18 to 20 hrs in presence of M9 medium by broth microdilution assay. It is filed as functional. To be noted: time 18-20 hrs. For orientation: Broth dilution looks for growth in wells or tubes with falling amounts of substance.

The test system of series [3] is Pseudomonas aeruginosa. Kind of series: Antibacterial activity against Pseudomonas aeruginosa PAO1 assessed as inhibition of bacterial growth incubated for 18 to 20 hrs in presence of M9 and FeCl3 medium by broth microdilution assay. It is filed as functional, organism-based.
The test system of series [4] is Pseudomonas aeruginosa. Kind of series: Antibacterial activity against Pseudomonas aeruginosa PAO1 assessed as inhibition of bacterial growth incubated for 18 to 20 hrs in presence of MH medium by broth microdilution assay. It is filed as functional, organism-based.
Series [5] relates to Pseudomonas aeruginosa. Kind of series: Antibacterial activity against Pseudomonas aeruginosa PAO1 assessed as inhibition of bacterial growth incubated for 18 to 20 hrs in presence of M9 medium by broth microdilution assay. It is filed as functional, organism-based.
The test system of series [6] is Pseudomonas aeruginosa. Kind of series: Antibacterial activity against Pseudomonas aeruginosa PAO1 assessed as inhibition of bacterial growth by measuring minimum inhibitory concentration incubated for 18 to 20 hrs in presence of M9 medium by broth microdilution assay. It is filed as functional. To be noted: time 18-20 hrs.
Series [7] deals with Pseudomonas aeruginosa. In words: Antibacterial activity against Pseudomonas aeruginosa PAO1 assessed as inhibition of bacterial growth by measuring minimum inhibitory concentration incubated for 18 to 20 hrs in presence of MH medium by broth microdilution assay. It is filed as functional. To be noted: time 18-20 hrs.
In series [8] the test system is Escherichia coli. In words: Antibacterial activity against Escherichia coli ATCC 25922 assessed as inhibition of bacterial growth by measuring minimum inhibitory concentration incubated for 18 to 20 hrs in presence of M9 medium by broth microdilution assay. To be noted: time 18-20 hrs. It is filed as functional.
Series [9] relates to Pseudomonas aeruginosa. Kind of series: Antibacterial activity against multi-drug resistant Pseudomonas aeruginosa clinical isolate FB assessed as inhibition of bacterial growth by measuring minimum inhibitory concentration incubated for 18 to 20 hrs in presence of M9 medium by broth microdilution assay. It is filed as functional. To be noted: time 18-20 hrs.
The subject of series [10] is Pseudomonas aeruginosa. Kind of series: Antibacterial activity against Pseudomonas aeruginosa PAO1 assessed as inhibition of bacterial growth by measuring minimum inhibitory concentration incubated for 18 to 20 hrs in presence of M9 and FeCl3 medium by broth microdilution assay. It is filed as functional. To be noted: time 18-20 hrs.
Series [11] deals with Pseudomonas aeruginosa. Kind of series: Antibacterial activity against multi-drug resistant Pseudomonas aeruginosa clinical isolate 1129 assessed as inhibition of bacterial growth by measuring minimum inhibitory concentration incubated for 18 to 20 hrs in presence of M9 medium by broth microdilution assay. It is filed as functional. To be noted: time 18-20 hrs.
In series [12] the test system is Pseudomonas aeruginosa. In words: Antibacterial activity against Pseudomonas aeruginosa ATCC27853 assessed as inhibition of bacterial growth by measuring minimum inhibitory concentration incubated for 18 to 20 hrs in presence of M9 medium by broth microdilution assay. It is filed as functional. To be noted: time 18-20 hrs.
The subject of series [13] is Klebsiella pneumoniae. In words: Antibacterial activity against Klebsiella pneumoniae ATCC 700603 assessed as inhibition of bacterial growth by measuring minimum inhibitory concentration incubated for 18 to 20 hrs in presence of M9 medium by broth microdilution assay. It is filed as functional. To be noted: time 18-20 hrs.
The subject of series [14] is Pseudomonas aeruginosa. In words: Antibacterial activity against multi-drug resistant Pseudomonas aeruginosa clinical isolate 1121 assessed as inhibition of bacterial growth by measuring minimum inhibitory concentration incubated for 18 to 20 hrs in presence of M9 medium by broth microdilution assay. It is filed as functional. To be noted: time 18-20 hrs.
In series [15] the test system is Staphylococcus aureus. Kind of series: Antibacterial activity against Staphylococcus aureus ATCC 25923 assessed as inhibition of bacterial growth incubated for 18 to 20 hrs in presence of M9 medium by broth microdilution assay. It is filed as functional, organism-based. To be noted: time 18-20 hrs.
The test system of series [16] is Pseudomonas aeruginosa. In words: Antibacterial activity against Pseudomonas aeruginosa PAO1 infected in Caenorhabditis elegans assessed as increase in worm survival rate at 32 ug/ml incubated for 60 hrs. To be noted: dose 32.0 µg/ml. It is filed as functional, organism-based.
The test system of series [17] is Staphylococcus aureus. In words: Bactericidal activity against Staphylococcus aureus ATCC 25923 assessed as inhibition of bacterial growth at 2 times MIC incubated upto 24 hrs by time-kill based microplate reader assay. It is filed as functional, organism-based.
For series [18], the system named is Pseudomonas aeruginosa. In words: Antibacterial activity against Pseudomonas aeruginosa PAO1 assessed as inhibition of bacterial growth at 32 ug/ml incubated upto 24 hrs by time-kill based microplate reader assay. It is filed as functional, organism-based. To be noted: dose 32.0 µg/ml.
The subject of series [19] is Vero. Kind of series: Cytotoxicity against green monkey Vero cells assessed as reduction in cell viability at 1 to 32 ug/ml incubated for 24 hrs by MTT assay. It is filed as toxicity, cell-based. To be noted: chlorocebus sabaeus, dose 1-32 µg/ml. Background: Tetrazolium assays rely on reduction of a dye to a coloured formazan, in cell work by metabolically active cells.

Activity calls are given as the source filed them. Some results are limits rather than exact numbers.

Take `CC(C)=CCc1c(O)ccc(C(=O)/C=C/c2ccc(OCCCCCCOCc3cc(=O)c(O)cn3C)cc2)c1O`: the MIC is 8 µg/mL in series [1]; over 128 µg/mL in series [2]; 16 µg/mL in [6]; 16 µg/mL in [7]; over 128 µg/mL in series [8]; 16 µg/mL in [9]. The MIC is over 128 µg/mL in series [10]; 8 µg/mL in [11]; 32 µg/mL in [12]; over 128 µg/mL in series [13]; 8 µg/mL in [14]. The IC50 in [3] was over 128 µg/mL; in [4], 7.31 µg/mL; in series [5] it was 3.39 µg/mL. The outcome in series [15] was inactive.
As for `CC(C)=CCc1c(O)ccc(C(=O)/C=C/c2ccc(OCCCCCCOCc3c(O)c(=O)cc(C)n3C)cc2)c1O`, the MIC is 16 µg/mL in [1]; over 128 µg/mL in series [2]; 32 µg/mL in series [6]; over 128 µg/mL in series [7]; over 128 µg/mL in [8]; 32 µg/mL in [9]. For the same compound, the MIC in series [10] was over 128 µg/mL; in [11], 8 µg/mL; in series [12] it was 32 µg/mL; in series [13], over 128 µg/mL; in series [14], 8 µg/mL. For the same compound, the half-inhibitory concentration (IC50) in series [3] is over 128 µg/mL; in series [4] it was 10.2 µg/mL; in series [5], 7.87 µg/mL. Moreover, the outcome in series [15] was inactive.
As for `CC(C)=CCc1c(OCCCCCC(=O)NCc2cc(=O)c(O)cn2C)ccc(C(=O)/C=C/c2ccc(O)cc2)c1O`, the MIC is 8 µg/mL in series [1]; 32 µg/mL in [2]; 16 µg/mL in [6]; 32 µg/mL in [7]; over 128 µg/mL in series [8]; 16 µg/mL in [9]. Also, the MIC is over 128 µg/mL in series [10]; 16 µg/mL in series [11]; 32 µg/mL in series [12]; over 128 µg/mL in series [13]; 8 µg/mL in [14]. Also, the values for the IC50 in [3], in series [4] and in [5] were over 128 µg/mL, 19.7 µg/mL and 1.72 µg/mL, respectively.
For the compound `CC1(C)S[C@@H]2[C@H](NC(=O)[C@H](N)c3ccccc3)C(=O)N2[C@H]1C(=O)O` [AMPICILLIN], the MIC in series [1] was over 128 µg/mL; in series [2], 0.25 µg/mL; in series [6], 32 µg/mL; in series [7], 32 µg/mL; in series [8], 8 µg/mL; in [9], over 128 µg/mL. For the same compound, the MIC in series [10] was 32 µg/mL; in series [11], over 128 µg/mL; in series [12] it was over 128 µg/mL; in [13], over 128 µg/mL; in [14], over 128 µg/mL. For the same compound, the IC50 in series [3] is 6.06 µg/mL; in series [4] it was 12.6 µg/mL; in series [5], 12.7 µg/mL.
Consider `CC(C)=CCc1c(O)ccc(C(=O)/C=C/c2ccc(O)cc2)c1O` [ISOBAVACHALCONE], for which the MIC is over 128 µg/mL in [1]; 4 µg/mL in series [2]; over 128 µg/mL in [6]; over 128 µg/mL in series [7]; over 128 µg/mL in series [8]; over 128 µg/mL in series [9]. Besides, the minimum inhibitory concentration (MIC) in series [10], in series [11], in [12], in [13] and in [14] was over 128 µg/mL throughout. Also, the IC50 in series [3], in series [4] and in [5] was over 128 µg/mL throughout. The result in series [16] and in [18] was inactive. In series [17], the result was Active. In addition, the Activity result in series [19] is on record as “Non-Toxic”.
Take `CC(C)=CCc1c(O)ccc(C(=O)/C=C/c2ccc(OCCCOCc3c(O)c(=O)cc(C)n3C)cc2)c1O`: the MIC in series [1] is 8 µg/mL; in series [2], 32 µg/mL; in series [6], 16 µg/mL; in series [7], 32 µg/mL; in series [8], over 128 µg/mL; in series [9], 16 µg/mL. Besides, the minimal inhibitory concentration (MIC) in [10] was over 128 µg/mL; in [11], 16 µg/mL; in [12], 32 µg/mL; in series [13] it was over 128 µg/mL; in series [14] it was 16 µg/mL. The IC50 is over 128 µg/mL in series [3], 16.2 µg/mL in series [4] and 3.27 µg/mL in [5].
For the compound `CC(C)=CCc1c(OCCCCn2cc(COCc3c(O)c(=O)cc(C)n3C)nn2)ccc(C(=O)/C=C/c2ccc(O)cc2)c1O`, the minimum inhibitory concentration (MIC) in series [1] is 32 µg/mL; in [2], 32 µg/mL; in series [6], 32 µg/mL; in series [7], 64 µg/mL; in series [8], over 128 µg/mL; in series [9] it was 16 µg/mL. For the same compound, the MIC is over 128 µg/mL in series [10]; 16 µg/mL in series [11]; 32 µg/mL in series [12]; over 128 µg/mL in series [13]; 8 µg/mL in [14]. The half-inhibitory concentration (IC50) is over 128 µg/mL in series [3], 29.4 µg/mL in [4] and 3.64 µg/mL in [5].
As to `CC(C)=CCc1c(OCCCCn2cc(COCc3cc(=O)c(O)cn3C)nn2)ccc(C(=O)/C=C/c2ccc(O)cc2)c1O`, the MIC in [1] was 16 µg/mL; in [2] it was 32 µg/mL; in series [6] it was 16 µg/mL; in [7], 32 µg/mL; in series [8] it was over 128 µg/mL; in [9], 16 µg/mL. Also, the minimal inhibitory concentration (MIC) in series [10] is over 128 µg/mL; in [11], 16 µg/mL; in series [12], 32 µg/mL; in [13], over 128 µg/mL; in series [14], 8 µg/mL. For the same compound, the values for the IC50 in series [3], in series [4] and in [5] were over 128 µg/mL, 17.8 µg/mL and 2.55 µg/mL, respectively.
On to `CCn1cc(C(=O)O)c(=O)c2cc(F)c(N3CCNCC3)cc21` [NORFLOXACIN], for which the MIC in [1] stood at 0.25 µg/mL; in series [2], 2 µg/mL; in [6] it was 0.25 µg/mL; in series [7], 0.125 µg/mL; in [8], 0.015 µg/mL; in series [9] it was 0.5 µg/mL. Besides, the MIC is 0.25 µg/mL in series [10]; 1 µg/mL in series [11]; 1 µg/mL in [12]; 2 µg/mL in series [13]; 0.5 µg/mL in series [14]. For the same compound, the IC50 was 0.07 µg/mL in series [3], 0.03 µg/mL in [4] and 0.08 µg/mL in series [5].
Turning to `CC(C)=CCc1c(O)ccc(C(=O)/C=C/c2ccc(OCCCCCC(=O)NCc3cc(=O)c(O)cn3C)cc2)c1O`, the MIC in series [1] was 32 µg/mL; in series [2] it was 32 µg/mL; in [6], 16 µg/mL; in [7], 32 µg/mL; in [8] it was over 128 µg/mL; in series [9] it was 16 µg/mL. Further, the MIC in series [10] was over 128 µg/mL; in [11], 32 µg/mL; in series [12], 32 µg/mL; in [13], over 128 µg/mL; in series [14], 16 µg/mL. Moreover, the IC50 in [3] was over 128 µg/mL; in series [4], 19.4 µg/mL; in [5], 1.46 µg/mL.
